Measurements reported in patent US9993494B2, “Compositions and methods for treating fibrotic disease” (eFFECTOR Therapeutics, Inc., priority 2014, dated 2018).

Tested on: normal human lung fibroblasts
Test: Ribosomal profiling: translational efficiency in TGFβ-treated fibroblasts
Assay type: cell-based
Details: TGFβ-treated fibroblasts
Method: Ribosomal profiling allows for measurement of changes in transcription and translation on a genome-wide basis accompanying TGFβ-dependent transformation of fibroblasts to myofibroblasts. Ribosomal profiles of the TGFβ-treated fibroblasts from Example 1 (about 6×10^6 cells/10 cm plate) were prepared and analyzed for changes in translational efficiencies with respect to potential disease-associated cellular changes accompanying this TGFβ-induced transformation.
Briefly, cells were washed with cold PBS supplemented with cycloheximide and lysed with 1× mammalian cell lysis buffer for 10 minutes on ice. Lysates were clarified by centrifugation for 10 minutes at 14,000 rpm and supernatants were collected. Cell lysates were processed to generate ribosomal protected fragments and total mRNA according to the instructions included with the ARTseq Ribosome Profiling Kit (Illumina, San Diego, Calif.). Sequencing of total RNA (RNA) and of ribosome-protected fragments of RNA (RPF) was carried out using RNA-Seq methodology according to the manufacturer's instructions (Illumina). To analyze the ribosomal profiles, RNA-Seq reads were processed with tools from the FASTX-Toolkit (fastq_quality_trimmer, fastx_clipper and fastx_trimmer). Unprocessed and processed reads were evaluated for a variety of quality measures using FastQC, and processed reads were mapped to the human genome using TopHat (see, e.g., Trapnell et al., Bioinformatics 25:1105, 2009). Gene-by-gene assessment of the number of fragments strictly and uniquely mapping to the coding region of each gene was conducted using HTSeq-count, a component of the HTSeq package. […] Genes with low counts in either RPF or RNA were excluded from differential analyses. Pathway and network analyses of differential data were conducted using Ingenuity Pathway Analysis (IPA).

CC(C=CC(=O)NO)=CC(C)C(=O)c1ccc(N(C)C)cc1 (stereo not drawn) [TSA, 7-[4-(dimethylamino)phenyl]-N-hydroxy-4,6-dimethyl-7-oxohepta-2,4-dienamide]
renormalizing the translational profile of NECAB3 (ENSG00000125967): − (− = <0.9) | renormalizing the translational profile of COX7C (ENSG00000127184): − (− = <0.9) | renormalizing the translational profile of LIF (ENSG00000128342): − (− = <0.9) | renormalizing the translational profile of MTUS1 (ENSG00000129422): − (− = <0.9) | renormalizing the translational profile of ARHGEF6 (ENSG00000129675): − (− = <0.9) | renormalizing the translational profile of RPL36 (ENSG00000130255): − (− = <0.9) | renormalizing the translational profile of GDF15 (ENSG00000130513): − (− = <0.9) | renormalizing the translational profile of ASS1 (ENSG00000130707): − (− = <0.9) | renormalizing the translational profile of EIF2S3 (ENSG00000130741): − (− = <0.9) | renormalizing the translational profile of RPL27 (ENSG00000131469): − (− = <0.9) | renormalizing the translational profile of MATN3 (ENSG00000132031): − (− = <0.9) | renormalizing the translational profile of PPARG (ENSG00000132170): + (+ = 0.9 to 1.5) | renormalizing the translational profile of KDM6B (ENSG00000132510): − (− = <0.9) | renormalizing the translational profile of RARRES3 (ENSG00000133321): − (− = <0.9) | renormalizing the translational profile of BIVM (ENSG00000134897): − (− = <0.9) | renormalizing the translational profile of ATP5G2 (ENSG00000135390): − (− = <0.9) | renormalizing the translational profile of KRT7 (ENSG00000135480): − (− = <0.9) | renormalizing the translational profile of HNRNPA1 (ENSG00000135486): − (− = <0.9) | renormalizing the translational profile of IL6 (ENSG00000136244): − (− = <0.9) | renormalizing the translational profile of RPL35 (ENSG00000136942): − (− = <0.9) | renormalizing the translational profile of NOV (ENSG00000136999): + (+ = 0.9 to 1.5) | renormalizing the translational profile of IER3 (ENSG00000137331): − (− = <0.9) | renormalizing the translational profile of DDX60 (ENSG00000137628): − (− = <0.9) | renormalizing the translational profile of RPLP1 (ENSG00000137818): − (− = <0.9) | renormalizing the translational profile of PAQR5 (ENSG00000137819): − (− = <0.9) | renormalizing the translational profile of AOX1 (ENSG00000138356): ++ (++ = 1.5 to 2.0) | renormalizing the translational profile of FGF5 (ENSG00000138675): − (− = <0.9) | renormalizing the translational profile of PDE5A (ENSG00000138735): − (− = <0.9) | renormalizing the translational profile of GAS2L3 (ENSG00000139354): + (+ = 0.9 to 1.5) | renormalizing the translational profile of DIAPH3 (ENSG00000139734): − (− = <0.9) | renormalizing the translational profile of MYO19 (ENSG00000141140): − (− = <0.9) | renormalizing the translational profile of RPL13A (ENSG00000142541): − (− = <0.9) | renormalizing the translational profile of RPL11 (ENSG00000142676): − (− = <0.9) | renormalizing the translational profile of ACTA1 (ENSG00000143632): − (− = <0.9) | renormalizing the translational profile of PLEKHA6 (ENSG00000143850): + (+ = 0.9 to 1.5) | renormalizing the translational profile of RPL32 (ENSG00000144713): − (− = <0.9) | renormalizing the translational profile of RPL37 (ENSG00000145592): − (− = <0.9) | renormalizing the translational profile of BTF3 (ENSG00000145741): − (− = <0.9) | renormalizing the translational profile of HIGD2A (ENSG00000146066): − (− = <0.9) | renormalizing the translational profile of CREB5 (ENSG00000146592): − (− = <0.9) | renormalizing the translational profile of DENND2A (ENSG00000146966): − (− = <0.9) | renormalizing the translational profile of RPL10 (ENSG00000147403): + (+ = 0.9 to 1.5) | renormalizing the translational profile of EIF3H (ENSG00000147677): − (− = <0.9) | renormalizing the translational profile of RPL7A (ENSG00000148303): − (− = <0.9) | renormalizing the translational profile of EIF3M (ENSG00000149100): − (− = <0.9) | renormalizing the translational profile of FAU (ENSG00000149806): − (− = <0.9) | renormalizing the translational profile of CCDC102B (ENSG00000150636): + (+ = 0.9 to 1.5) | renormalizing the translational profile of FRMD4A (ENSG00000151474): + (+ = 0.9 to 1.5) | renormalizing the translational profile of HOMER1 (ENSG00000152413): − (− = <0.9) | renormalizing the translational profile of PLEKHH2 (ENSG00000152527): − (− = <0.9) | renormalizing the translational profile of ANKH (ENSG00000154122): − (− = <0.9) | renormalizing the translational profile of ABCA6 (ENSG00000154262): − (− = <0.9) | renormalizing the translational profile of OBSCN (ENSG00000154358): +++ (+++ = >2.0) | renormalizing the translational profile of ADAMTS5 (ENSG00000154736): − (− = <0.9) | renormalizing the translational profile of OXA1L (ENSG00000155463): − (− = <0.9) | renormalizing the translational profile of C9orf85 (ENSG00000155621): − (− = <0.9) | renormalizing the translational profile of RPL30 (ENSG00000156482): − (− = <0.9) | renormalizing the translational profile of EEF1A1 (ENSG00000156508): + (+ = 0.9 to 1.5) | renormalizing the translational profile of NRG1 (ENSG00000157168): − (− = <0.9) | renormalizing the translational profile of ADAMTS4 (ENSG00000158859): − (− = <0.9) | renormalizing the translational profile of RPL8 (ENSG00000161016): − (− = <0.9) | renormalizing the translational profile of RPL26 (ENSG00000161970): − (− = <0.9) | renormalizing the translational profile of RPL29 (ENSG00000162244): − (− = <0.9) | renormalizing the translational profile of CAMK2N1 (ENSG00000162545): − (− = <0.9) | renormalizing the translational profile of IGFBP7 (ENSG00000163453): − (− = <0.9) | renormalizing the translational profile of RPL22L1 (ENSG00000163584): − (− = <0.9)
